Test results taken from patent publication US20230066946A1, “1,5-DIPHENYLPYRAZOLYL-3-OXYALKYL ACIDS AND 1-PHENYL-5-THIENYLPYRAZOLYL-3-OXYALKYL ACIDS AND THE USE THEREOF FOR CONTROL OF UNWANTED PLANT GROWTH” (Bayer Aktiengesellschaft, priority 2019, published 2023).

How the values were obtained:
[1] = tested on: SETVI; assay: Post-emergence herbicidal action against SETVI; format: in vivo, Setaria viridis; settings: 1280 g/ha, post-emergence at one-leaf stage, rated visually after about 3 weeks vs untreated controls
In short: (§1)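 Applied post-emergence at 1280 or 320 g/ha to one-leaf-stage weeds grown in sandy loam, using WP or EC formulations in water (600 litres per hectare, 0.5% additive). Efficacy is scored visually relative to untreated plants about 3 weeks later, 0% meaning no effect and 100% plant death.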

[2] = tested on: AMARE; assay: Post-emergence herbicidal action against AMARE; format: in vivo, Amaranthus retroflexus; settings: visual rating about 3 weeks after treatment
In short: as §1

[3] = tested on: LOLRI; assay: Post-emergence herbicidal action against LOLRI; format: in vivo, Lolium rigidum; settings: 1280 g/ha, post-emergence at one-leaf stage, rated visually after about 3 weeks vs untreated controls
Experimental: (§2) [table] Seeds of mono- and dicotyledonous weed plants are placed in plastic pots in sandy loam soil (twin sowing with one species each of mono- or dicotyledonous weed plants per pot), covered with soil and cultivated in a greenhouse under controlled growth conditions. 2 to 3 weeks after sowing, the test plants are treated at the one-leaf stage. The compounds of the invention, formulated in the form of wettable powders (WP) or as emulsion concentrates (EC), are applied to the green parts of the plants as aqueous suspension or emulsion with addition of 0.5% additive at a water application rate equivalent to 600 litres per hectare. After the test plants have been kept in the greenhouse under optimum growth conditions for about 3 weeks, the activity of the preparations is rated visually in comparison to untreated controls. For example, 100% activity=the plants have died, 0% activity=like control plants. Tables 5.1-5.16 below show the effects of selected compounds of the general formula (I) according to Tables 1 to 3 on various harmful plants at an application rate corresponding to 1280 or 320 g/ha, which have been obtained by the aforementioned experimental method.

[4] = tested on: ECHCG; assay: Post-emergence herbicidal action against ECHCG; format: in vivo, Echinochloa crus-galli; settings: 1280 g/ha, post-emergence at one-leaf stage, rated visually after about 3 weeks vs untreated controls
In short: as §1

[5] = tested on: AMARE; assay: Pre-emergence herbicidal action against AMARE; format: in vivo, Amaranthus retroflexus; settings: scored visually after about 3 weeks vs untreated controls; for Pre-emergence action against AMARE in %: 1280 g/ha; for Pre-emergence action at 320 g/ha against AMARE in %: 100% = plants have died, 0% = like control plants
In short: (§3)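 Visual percent activity (100% = plants dead, 0% = like control) scored about 3 weeks after pre-emergence treatment in greenhouse. Compounds as WP or EC, applied to covering soil surface with 0.5% additive, 600 L/ha water, at 1280 or 320 g/ha.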

[6] = tested on: ECHCG; assay: Pre-emergence herbicidal action against ECHCG; format: in vivo, Echinochloa crus-galli; settings: scored visually after about 3 weeks vs untreated controls, 100% = plants have died, 0% = like control plants
In short: as §3

[7] = tested on: SETVI; assay: Pre-emergence herbicidal action against SETVI; format: in vivo, Setaria viridis; settings: 1280 g/ha, scored visually after about 3 weeks vs untreated controls
In short: as §3

[8] = tested on: STEME; assay: Pre-emergence herbicidal action against STEME; format: in vivo, Stellaria media; settings: scored visually after about 3 weeks vs untreated controls
In short: as §3

[9] = tested on: MATIN; assay: Post-emergence herbicidal action against MATIN; format: in vivo, Matricaria inodora; settings: visual rating about 3 weeks after treatment
In short: as §1

[10] = tested on: STEME; assay: Post-emergence herbicidal action against STEME; format: in vivo, Stellaria media; settings: visual rating about 3 weeks after treatment
In short: as §1

[11] = tested on: HORMU; assay: Pre-emergence herbicidal action against HORMU; format: in vivo, Hordeum murinum; settings: 320 g/ha, scored visually after about 3 weeks vs untreated controls
Excerpt: Seeds of mono- and dicotyledonous weed plants are placed in plastic pots in sandy loam soil (doubly sown with one species each of mono- or dicotyledonous weed plants per pot) and covered with soil. The compounds of the invention, formulated in the form of wettable powders (WP) or as emulsion concentrates (EC), are then applied onto the surface of the covering soil as aqueous suspension or emulsion with addition of 0.5% additive at a water application rate equivalent to 600 litres per hectare. After the treatment, the pots are placed in a greenhouse and kept under good growth conditions for the trial plants. After about 3 weeks, the effect of the preparations is scored visually in comparison with untreated controls as percentages. For example, 100% activity=the plants have died, 0% activity=like control plants. [table] Tables 4.1-4.15 below show the effects of selected compounds of the general formula (I) according to Tables 1 to 3 on various harmful plants at an application rate corresponding to 1280 or 320 g/ha, which have been obtained by the aforementioned experimental method.

[12] = tested on: harmful plants; assay: Pre-emergence herbicidal action, summary of Tables 4.1-4.15; format: in vivo; settings: result in words
In short: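 Percent herbicidal action (100% = plants dead, 0% = like controls) was assessed visually about 3 weeks after treatment. Application rates of 1280 or 320 g/ha were applied to the covering soil of freshly sown sandy-loam pots, in 600 l/ha water with 0.5% additive, before emergence.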

[13] = tested on: POLCO; assay: Post-emergence herbicidal action against POLCO; format: in vivo, Polygonum convolvulus; settings: 320 g/ha, visual rating about 3 weeks after treatment
In short: as §1

[14] = tested on: VIOTR; assay: Post-emergence herbicidal action against VIOTR; format: in vivo, Viola tricolor; settings: 320 g/ha, visual rating about 3 weeks after treatment
In short: as §1

[15] = tested on: VERPE; assay: Pre-emergence herbicidal action against VERPE; format: in vivo, Veronica persica; settings: 320 g/ha, scored visually after about 3 weeks vs untreated controls
In short: as §3

[16] = tested on: POLCO; assay: Pre-emergence herbicidal action against POLCO; format: in vivo, Polygonum convolvulus; settings: 320 g/ha, scored visually after about 3 weeks vs untreated controls
In short: as §3

[17] = tested on: HORMU; assay: Post-emergence herbicidal action against HORMU; format: in vivo, Hordeum murinum; settings: 320 g/ha, visual rating about 3 weeks after treatment
Experimental: as §2

[18] = tested on: VERPE; assay: Post-emergence herbicidal action against VERPE; format: in vivo, Veronica persica; settings: 320 g/ha, visual rating about 3 weeks after treatment
In short: as §1

[19] = tested on: PHBPU; assay: Post-emergence herbicidal action against PHBPU; format: in vivo, Pharbitis purpurea; settings: 320 g/ha, visual rating about 3 weeks after treatment
In short: as §1

| Compound | Post-emergence action against AMARE in % ([2]; 1280 g/ha) | Post-emergence action against ECHCG in % [4] | Pre-emergence action against AMARE in % [5] | Pre-emergence action at 1280 g/ha against ECHCG in % [6] | Pre-emergence action against SETVI in % [7] | Pre-emergence action against STEME in % ([8]; 1280 g/ha) | Post-emergence action against MATIN in % ([9]; 1280 g/ha) | Post-emergence action against STEME in % ([10]; 1280 g/ha) | Pre-emergence action against HORMU in % [11] | herbicidal efficacy against harmful plants in the case of pre-emergence treatment [12] | Post-emergence action against AMARE in % ([2]; 320 g/ha) | Pre-emergence action at 320 g/ha against AMARE in % [5] | Post-emergence action against POLCO in % [13] | Post-emergence action against VIOTR in % [14] | Pre-emergence action against STEME in % ([8]; 320 g/ha) | Post-emergence action against MATIN in % ([9]; 320 g/ha) | Pre-emergence action against VERPE in % [15] | Pre-emergence action against POLCO in % [16] | Post-emergence action against HORMU in % [17] | Post-emergence action against STEME in % ([10]; 320 g/ha) | other results |
| --- | --- | --- | --- | --- | --- | --- | --- | --- | --- | --- | --- | --- | --- | --- | --- | --- | --- | --- | --- | --- | --- |
| COC(=O)C(C)Oc1nn(-c2ccccc2F)c(-c2ccc(F)c(F)c2)c1C#N (stereo not drawn) [I-171] | 90% | 100% | 100% | 90% | 100% | 100% | 90% | 100% | – | – | – | – | – | – | – | – | – | – | – | – | Post-emergence action against SETVI in % [1]: 100%; Post-emergence action against LOLRI in % [3]: 100% |
| CC(Oc1nn(-c2ccccc2)c(-c2ccc(F)cc2)c1Cl)C(=O)O (stereo not drawn) [I-139] | – | – | 100% | 100% | 100% | 100% | 90% | 90% | 90% | good herbicidal efficacy | 90% | 100% | 90% | 80% | 100% | 80% | 100% | 90% | 80% | 80% | – |
| COC(=O)[C@@H](C)Oc1nn(-c2ccccc2)c(-c2ccc(F)cc2)c1C#N [I-130] | 90% | 100% | 100% | 100% | 100% | 100% | 90% | 100% | 100% | – | 90% | 100% | 90% | 90% | 90% | 90% | 100% | 90% | 80% | 90% | Post-emergence action against LOLRI in % [3]: 90%; Post-emergence action against VERPE in % [18]: 90% |
| C=CCNC(=O)COc1nn(-c2c(F)cccc2F)c(-c2ccc(F)c(F)c2)c1[N+](=O)[O-] [III-069] | – | – | 90% | 100% | 100% | 90% | – | – | 90% | good herbicidal efficacy | 90% | 100% | 80% | – | 100% | 80% | 100% | 90% | 80% | 90% | Post-emergence action against VERPE in % [18]: 90% |
| COC(=O)[C@@H](C)Oc1nn(-c2cccc(F)c2)c(-c2cccc(F)c2)c1C#N [I-125] | 90% | 90% | 100% | 100% | 100% | 100% | 90% | 90% | 90% | good herbicidal efficacy | 90% | 100% | 80% | 90% | 90% | 80% | 90% | 100% | 90% | – | Post-emergence action against PHBPU in % [19]: 80%; Post-emergence action against SETVI in % [1]: 90%; Post-emergence action against VERPE in % [18]: 80% |
